Test results from PubChem BioAssay AID248 (DTP/NCI, 2004).
“And” between values parts separate entries of the source, which are not always exact repeats. Equal values may be shown once. Toxic doses and inconclusive results are not listed. Rule as the data show it: active = T/C of 150% or more; inactive = T/C below 125%.

System: L1210 leukemia ip in BDF1 mice, survival T/C
Assay: NCI In Vivo Anticancer Drug Screen. Data for tumor model L1210 Leukemia (intraperitoneal) in B6D2F1 (BDF1) mice
Details: endpoint: mean survival time, higher = longer survival
Summary of the method: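 Read-out is survival time, reported as the treated-group measurement over the vehicle-control measurement.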

[1] = dose: 100.0 mg/kg/injection, schedule: Q01DX009 (ip), vehicle: saline with Tween-80
[2] = dose: 100.0 mg/kg/injection, schedule: Q04DX003 (ip), vehicle: saline
[3] = dose: 200.0 mg/kg/injection, schedule: Q04DX003 (ip), vehicle: saline
[4] = dose: 400.0 mg/kg/injection, schedule: Q04DX003 (ip), vehicle: saline
[5] = dose: 100.0 mg/kg/injection, schedule: Q04DX003 (ip), vehicle: Klucel (hydroxypropylcellulose) (HPC)
[6] = dose: 200.0 mg/kg/injection, schedule: Q04DX003 (ip), vehicle: Klucel (hydroxypropylcellulose) (HPC)
[7] = dose: 400.0 mg/kg/injection, schedule: Q04DX003 (ip), vehicle: Klucel (hydroxypropylcellulose) (HPC)
[8] = dose: 100.0 mg/kg/injection, schedule: Q01DX009 (ip), vehicle: Klucel (hydroxypropylcellulose) (HPC)
[9] = dose: 100.0 mg/kg/injection, schedule: Q01DX009 (ip), vehicle: saline
[10] = dose: 100.0 mg/kg/injection, schedule: Q04DX002 (ip), vehicle: Klucel (hydroxypropylcellulose) (HPC)

Measured: T/C

CCOC(=O)c1cnc(=O)n(Cc2ccccc2)c1N
inactive: dose: 100.0 mg/kg/injection, schedule: Q04DX002 (ip), vehicle: other 98 % of control | dose: 200.0 mg/kg/injection, schedule: Q04DX002 (ip), vehicle: other 95 % of control | dose: 400.0 mg/kg/injection, schedule: Q04DX002 (ip), vehicle: other 98 % of control

O=[N+]([O-])c1ncn[nH]1
inactive: [1] 96 % of control | dose: 100.0 mg/kg/injection, schedule: Q04DX003 (ip), vehicle: saline with Tween-80 102 % of control | dose: 200.0 mg/kg/injection, schedule: Q04DX003 (ip), vehicle: saline with Tween-80 97 % of control | dose: 400.0 mg/kg/injection, schedule: Q01DX009 (ip), vehicle: saline with Tween-80 87 % of control | dose: 400.0 mg/kg/injection, schedule: Q04DX003 (ip), vehicle: saline with Tween-80 92 % of control

CCOC(=O)C(O)(CC)c1ccncc1C (configuration not stated)
inactive: [2] 96 % of control | [3] 98 % of control | [4] 100 % of control

CCOC(=O)CNCc1ccc(C)cc1
inactive: dose: 100.0 mg/kg/injection, schedule: Q01DX009 (ip), vehicle: water 102 % of control | dose: 100.0 mg/kg/injection, schedule: Q04DX003 (ip), vehicle: water 93 % of control | dose: 200.0 mg/kg/injection, schedule: Q01DX009 (ip), vehicle: water 111 % of control | dose: 200.0 mg/kg/injection, schedule: Q04DX003 (ip), vehicle: water 93 % of control | dose: 400.0 mg/kg/injection, schedule: Q01DX009 (ip), vehicle: water 105 % of control | dose: 400.0 mg/kg/injection, schedule: Q04DX003 (ip), vehicle: water 97 % of control

CCC(N)CC
inactive: dose: 75.0 mg/kg/injection, schedule: Q01DX009 (ip), vehicle: saline 104 % of control | [2] 105 % of control | dose: 150.0 mg/kg/injection, schedule: Q01DX009 (ip), vehicle: saline 96 % of control and 100 % of control | [3] 103 % of control

COc1ccccc1N=Cc1ccccc1O.[Co]
inactive: dose: 100.0 mg/kg/injection, schedule: Q01DX001 (ip), vehicle: other 94 % of control | dose: 200.0 mg/kg/injection, schedule: Q01DX001 (ip), vehicle: other 94 % of control | dose: 400.0 mg/kg/injection, schedule: Q01DX001 (ip), vehicle: other 93 % of control

N#C/C(=C/c1ccc(O)cc1)C(=O)O
inactive: [5] 96 % of control | [6] 94 % of control | [7] 94 % of control

CS(=O)(=O)OC1C(N=[N+]=[N-])CN(C(=O)c2ccccc2)C1CCOC(=O)c1ccccc1 (configuration not stated)
inactive: dose: 100.0 mg/kg/injection, schedule: Q01DX001 (ip), vehicle: saline with Tween-80 102 % of control | dose: 200.0 mg/kg/injection, schedule: Q01DX001 (ip), vehicle: saline with Tween-80 96 % of control | dose: 400.0 mg/kg/injection, schedule: Q01DX001 (ip), vehicle: saline with Tween-80 96 % of control

O=Cc1cscc1-c1cscc1C=O
inactive: dose: 50.0 mg/kg/injection, schedule: Q01DX009 (ip), vehicle: saline with Tween-80 91 % of control | [1] 95 % of control | dose: 200.0 mg/kg/injection, schedule: Q01DX009 (ip), vehicle: saline with Tween-80 98 % of control

O=[N+]([O-])c1cccc(/C=N/Nc2nnc(N/N=C/c3cccc([N+](=O)[O-])c3)c3ccccc23)c1
inactive: dose: 50.0 mg/kg/injection, schedule: Q01DX001 (ip), vehicle: carboxymethylcellulose (CMC) 98 % of control | dose: 100.0 mg/kg/injection, schedule: Q01DX001 (ip), vehicle: carboxymethylcellulose (CMC) 98 % of control | dose: 200.0 mg/kg/injection, schedule: Q01DX001 (ip), vehicle: carboxymethylcellulose (CMC) 87 % of control | dose: 400.0 mg/kg/injection, schedule: Q01DX001 (ip), vehicle: carboxymethylcellulose (CMC) 93 % of control

CCCCCN(CCCCC)CC(O)c1cc2c(c3ccccc13)CCCC2 (configuration not stated)
inactive: dose: 25.0 mg/kg/injection, schedule: Q01DX009 (ip), vehicle: Klucel (hydroxypropylcellulose) (HPC) 87 % of control | dose: 50.0 mg/kg/injection, schedule: Q01DX009 (ip), vehicle: Klucel (hydroxypropylcellulose) (HPC) 93 % of control | [8] 90 % of control

O=C(O)C1(C(=O)O)CC23CCC2(C1)CC(C(=O)O)(C(=O)O)C3 (configuration not stated)
inactive: [2] 95 % of control | [3] 97 % of control | [4] 103 % of control

COC1=C(N)C(=O)c2ncccc2C1=O
inactive: dose: 4.0 mg/kg/injection, schedule: Q01DX009 (ip), vehicle: acetone 105 % of control | dose: 8.0 mg/kg/injection, schedule: Q01DX009 (ip), vehicle: acetone 105 % of control | dose: 16.0 mg/kg/injection, schedule: Q01DX009 (ip), vehicle: acetone 102 % of control

O=C(Nc1ccc(Cl)c(Cl)c1)Nc1ccccc1O
inactive: [5] 100 % of control | [6] 102 % of control | [7] 100 % of control

CC1(C)N=C(N)N=C(N)N1c1cccc(OCCCOc2ccc(NC(=O)CBr)cc2)c1
inactive: dose: 45.0 mg/kg/injection, schedule: Q01DX009 (ip), vehicle: saline 104 % of control | dose: 67.0 mg/kg/injection, schedule: Q01DX009 (ip), vehicle: saline 104 % of control | dose: 100.0 mg/kg/injection, schedule: Q01DX001 (ip), vehicle: saline 110 % of control | [9] 102 % of control | dose: 200.0 mg/kg/injection, schedule: Q01DX001 (ip), vehicle: saline 97 % of control

O=C(O)c1ccc(F)cc1F
inactive: [10] 121 % of control | dose: 200.0 mg/kg/injection, schedule: Q04DX002 (ip), vehicle: Klucel (hydroxypropylcellulose) (HPC) 105 % of control | dose: 400.0 mg/kg/injection, schedule: Q04DX002 (ip), vehicle: Klucel (hydroxypropylcellulose) (HPC) 98 % of control

COc1ccc(N2CCNCC2)cc1
inactive: dose: 5.0 mg/kg/injection, schedule: Q01DX001 (ip), vehicle: saline 103 % of control | dose: 10.0 mg/kg/injection, schedule: Q01DX001 (ip), vehicle: saline 103 % of control | dose: 20.0 mg/kg/injection, schedule: Q01DX001 (ip), vehicle: saline 97 % of control | dose: 40.0 mg/kg/injection, schedule: Q01DX001 (ip), vehicle: saline 105 % of control

NNC(=O)Cc1nc2ccccc2[nH]c1=O
inactive: [8] 102 % of control | [5] 106 % of control | dose: 200.0 mg/kg/injection, schedule: Q01DX009 (ip), vehicle: Klucel (hydroxypropylcellulose) (HPC) 96 % of control | [6] 95 % of control | [7] 98 % of control

COC(=O)N1C(C)=CC=CC=C1C
inactive: dose: 12.5 mg/kg/injection, schedule: Q04DX002 (ip), vehicle: Klucel (hydroxypropylcellulose) (HPC) 94 % of control | dose: 25.0 mg/kg/injection, schedule: Q04DX002 (ip), vehicle: Klucel (hydroxypropylcellulose) (HPC) 88 % of control | dose: 50.0 mg/kg/injection, schedule: Q04DX002 (ip), vehicle: Klucel (hydroxypropylcellulose) (HPC) 98 % of control | [10] 100 % of control

O=C(O)COc1ccc(Cl)cc1CCl
inactive: [5] 100 % of control | [6] 98 % of control | [7] 102 % of control

CC(C)(C)CC(C)(C)c1ccc(OCCO)cc1
inactive: dose: 50.0 mg/kg/injection, schedule: Q01DX009 (ip), vehicle: saline 97 % of control | [9] 91 % of control | [2] 107 % of control | [3] 101 % of control
